{"source": "paper PMC10046037", "about": "“GABRG2 Variants Associated with Febrile Seizures” (Biomolecules, 2023)", "target": "T1, α1β3γ2 GABAA receptor, γ2F457S variant (Homo sapiens, UniProt P14867+P18507+P28472, F457S)", "T1 construct": "expressed in transfected cells; host or cells: HEK293T", "T1 sequence (P14867 28-456)": "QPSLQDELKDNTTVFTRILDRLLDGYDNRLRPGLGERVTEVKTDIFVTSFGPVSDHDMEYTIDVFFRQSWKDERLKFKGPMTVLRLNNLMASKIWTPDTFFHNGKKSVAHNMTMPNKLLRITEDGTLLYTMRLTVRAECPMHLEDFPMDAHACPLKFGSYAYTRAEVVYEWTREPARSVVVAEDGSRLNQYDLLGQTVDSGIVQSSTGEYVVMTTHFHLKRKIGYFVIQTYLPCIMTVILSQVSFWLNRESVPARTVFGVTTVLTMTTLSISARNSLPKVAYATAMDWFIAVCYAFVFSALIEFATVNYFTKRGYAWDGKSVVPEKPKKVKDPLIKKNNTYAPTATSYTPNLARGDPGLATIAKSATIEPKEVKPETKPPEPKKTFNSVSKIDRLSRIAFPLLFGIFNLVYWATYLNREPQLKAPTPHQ", "T1 sequence (P28472 26-473 isoform P28472-2)": "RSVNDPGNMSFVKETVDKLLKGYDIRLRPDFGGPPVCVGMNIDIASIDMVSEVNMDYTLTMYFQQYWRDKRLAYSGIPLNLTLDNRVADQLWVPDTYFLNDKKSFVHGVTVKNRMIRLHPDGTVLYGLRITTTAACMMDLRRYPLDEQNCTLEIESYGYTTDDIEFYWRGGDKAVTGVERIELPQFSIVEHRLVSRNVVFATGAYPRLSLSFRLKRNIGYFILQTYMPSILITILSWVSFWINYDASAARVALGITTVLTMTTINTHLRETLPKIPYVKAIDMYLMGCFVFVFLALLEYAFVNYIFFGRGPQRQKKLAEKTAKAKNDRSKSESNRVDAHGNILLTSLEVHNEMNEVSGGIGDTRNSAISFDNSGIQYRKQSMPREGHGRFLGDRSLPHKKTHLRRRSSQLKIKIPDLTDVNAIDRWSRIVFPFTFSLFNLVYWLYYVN", "T1 sequence (P18507 40-475 F457S)": "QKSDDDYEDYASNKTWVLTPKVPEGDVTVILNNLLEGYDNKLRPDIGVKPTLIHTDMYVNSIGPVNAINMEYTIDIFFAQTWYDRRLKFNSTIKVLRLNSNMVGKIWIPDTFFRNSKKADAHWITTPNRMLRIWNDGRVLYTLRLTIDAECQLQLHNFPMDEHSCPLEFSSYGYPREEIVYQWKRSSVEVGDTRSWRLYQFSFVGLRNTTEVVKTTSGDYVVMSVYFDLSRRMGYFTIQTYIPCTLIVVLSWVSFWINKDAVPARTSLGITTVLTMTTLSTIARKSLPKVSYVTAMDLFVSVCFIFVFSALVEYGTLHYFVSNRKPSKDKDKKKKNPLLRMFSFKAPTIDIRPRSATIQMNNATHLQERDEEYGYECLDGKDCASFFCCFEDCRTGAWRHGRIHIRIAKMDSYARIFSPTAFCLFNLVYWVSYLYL", "assay": "Automated patch clamp of GABA-elicited currents (SyncroPatch 384PE), γ2F457S", "assay_type": "cell-based", "details": "mean", "method": "The coding sequences of human α1 (GABRA1, NM_000806), β3 (GABRB3, NM_021912), and γ2 (GABRG2, NM_198904.2) GABAAR subunits were subcloned into the pcDNA3.1 expression vectors (Invitrogen, Waltham, MA, USA).\nHEK293T cells (ATCC, CRL-11268) were cultured at 37 °C in a humidified 5% CO2 incubator and maintained in Dulbecco’s modified Eagle’s medium (Invitrogen) supplemented with 10% fetal bovine serum (Life Technologies, Carlsbad, CA, USA), and 100 IU/mL of penicillin/streptomycin (Life Technologies). For the expression experiments, 4 × 10^5 cells were transfected using polyethylenimine (PEI) reagent (40 kD, Polysciences, Warrington, PA, USA) at a DNA: to transfection reagent ratio of 1:2.5 and harvested 36 h after transfection. To express WT and variant α1β3γ2 receptors, a total of 3 µg of α1, β3, and γ2 (WT or mutant) subunit cDNAs were transfected at a ratio of 1:1:1 into 60 mm culture dishes. For the mock-transfected condition, an empty pcDNA3.1 vector was added for a final cDNA transfection amount of 3 μg. For the electrophysiology experiments, 2.5 × 10^5 cells were plated in 100 mm culture dishes and transfected after 24 h with 3 μg of cDNA of each α1, β3, γ2 (wild-type or mutant) subunit, using X-tremeGENE HP DNA transfection Reagent (Roche Diagnostics, Basel, Switzerland), following the manufacturer’s protocol. Recordings were obtained forty-eight hours after transfection.\nWhole-cell patch clamp recordings were conducted according to the manufacturer’s standard procedure for the SyncroPatch 384 [31]. Whole-cell voltage-clamp recordings were performed at room temperature on HEK293T cells 48 h after transfection with GABAAR subunits, using the SyncroPatch 384PE (Nanion Technologies, Munich, Germany). Cells, at a concentration of 400,000 cells/mL, were harvested in suspension in external solution containing 140 mM of NaCl, 2 mM of CaCl2, 4 mM of KCl, 1 mM of MgCl2, 5 mM of glucose, and 10 mM of HEPES (pH 7.4 with NaOH, 298 mOsm). The cells were loaded in a multi-hole (4 holes per well) 384-well Nanion patch clamp (NPC) chip with a thick borosilicate glass bottom and an average resistance pore size of […]. Built-in electrophysiological protocols were used, and the data were digitized using PatchControl 384 (Nanion Technologies) application. Using PatchControl 384, electrophysiological parameters, such as seal resistance, capacitance, and series resistance, were determined for each well after the application of a test pulse, and subsequently monitored over time. […] The currents were normalized to the maximal response of each well, and the concentration–response curves were calculated from single-point additions. The EC50 values for each variant or wild-type receptor were calculated across multiple wells for each experimental condition.", "data": [{"smiles": "NCCCC(=O)O", "note": "[GABA, γ-aminobutyric acid]", "values": [{"measurement": "Deactivation", "setting": "1 mM GABA for 5 ms, HEK293T, -80 mV", "value": 224.8, "unit": "ms"}, {"measurement": "IMAX (maximal GABA-evoked peak current)", "setting": "1 mM GABA for 5 ms, HEK293T", "value": 0.44, "unit": "nA"}, {"measurement": "IMAX variant/IMAX WT", "setting": "1 mM GABA", "value": 21.96, "unit": "%"}, {"measurement": "Rise Time", "setting": "10–90% rise time, 1 mM GABA for 5 ms, HEK293T", "value": 60.51, "unit": "ms"}]}]}
